This is an account of results in US20060128695A1, “Cyclic nucleotide phosphodiesterase inhibitors, preparation and uses” (NEURO3D, priority 2002, published 2006).

The test system of one assay is PDE1. In words: Selectivity: inhibition of PDE1, radioenzymatic phosphodiesterase assay. The format is biochemical, bovine. The conditions noted are these: 10 μM test compound; vascular smooth muscle. As for the experimental part: (§1) A 3 g segment of bovine aortic media cut into pieces with scissors was homogenized with an ultra-turrax then a potter glass/glass homogenizer in 7 volumes by weight of buffer A containing a protease inhibitor cocktail (20 mM Tris-HCl, 0.25 M saccharose, 2 mM magnesium acetate, 1 mM dithiothreitol, 5 mM EGTA, 2000 U/ml aprotinin, 10 mg/l leupeptin and 10 mg/l soya trypsic inhibitor). The homogenizate was centrifuged at 105,000 g for 1 hour. The supernatant was loaded on a DEAE-Sephacel column (15 x 1.6 cm) pre-equilibrated with buffer B (buffer A without the saccharose, EGTA and protease inhibitors). The column was washed until there was no detectable absorption at 280 nm, then eluted with a linear gradient of NaCl (0-0.5 M) in buffer B. 3-ml fractions were collected and enzyme activity was determined under the conditions described hereinbelow to localize the different enzymes PDE1, PDE3, PDE4 and PDE5 which were aliquoted and frozen at −80° C. (Lugnier et al., Biochem. Phamacol., 1986, 35: 1746-1751). PDE2 was prepared from bovine endothelial cells by the same methods (Lugnier and Schini, Biochem. Pharmacol., 1990, 39: 75-84).
Cyclic nucleotide phosphodiesterase activity was determined by a radioenzymatic method using tritium-labelled cyclic GMP or AMP (1 μM) as substrate (Lugnier et al., 1986). ^3H-labelled adenosine or guanosine monophosphate formed by hydrolysis of the radiolabelled cyclic nucleotide was then converted to ^3H-labelled adenosine or guanosine in a second reaction with […] in excess. The nucleoside formed was separated from the nucleotides by anion exchange chromatography. Nucleoside radioactivity was determined by liquid scintillation counting. […]
(§2) The activity of the compounds was evaluated on other phosphodiesterase isoforms, particularly basal state or calmodulin-activated PDEl from vascular smooth muscle, PDE3, PDE4 and PDE5 from vascular smooth muscle.
(§3) The results obtained are presented in Tables 1 and 2 hereinbelow and are expressed as the percentage inhibition of enzymatic activity produced by […] of the test compound.

The next assay concerns the target T1, PDE5 (Bos taurus, UniProt Q28156).
T1 construct: localize the different enzymes PDE1, PDE3, PDE4 and PDE5 which were aliquoted and frozen; from tissue; host or cells: bovine aortic media (vascular smooth muscle)
In words: Selectivity: inhibition of PDE5, radioenzymatic phosphodiesterase assay. The conditions noted are these: 10 μM test compound; vascular smooth muscle; read-out: PDE5 percentage inhibition at 10 μM. The format is biochemical, bovine. As for the experimental part: as §1
(§4) Cyclic nucleotide phosphodiesterase activity was determined by a radioenzymatic method using tritium-labelled cyclic GMP or AMP (1 μM) as substrate (Lugnier et al., 1986). ^3H-labelled adenosine or guanosine monophosphate formed by hydrolysis of the radiolabelled cyclic nucleotide was then converted to ^3H-labelled adenosine or guanosine in a second reaction with […] in excess. The nucleoside formed was separated from the nucleotides by anion exchange chromatography. Nucleoside radioactivity was determined by liquid scintillation counting. Enzymatic incubations were carried out under conditions allowing no more than 15% hydrolysis of the substrate; each point was performed in duplicate.
as §2, §3

Assay [1] has as its system mice. In words: Elevated plus maze test. The format is in vivo, Balb/c or Swiss mice. To be noted: oral, 1 hour before the test, all doses tested, recorded over 8 minutes, versus control. The text has this: This test was validated in the rat by Pellow in 1986 and in the mouse by Lister in 1987. It is based on an aversion to open spaces: the open arms elicit anxiety in the animals while the closed arms represent safety. By recording the frequency of entry into each arm, this test evaluates the anxiolytic effect of a molecule in comparison with a reference compound such as buspirone.
Ten to eleven-week old Balb/c or Swiss mice were used for the test. Mice were randomly divided into a control group (treated with the vehicle) and other groups treated with the test compounds.
The test apparatus was a PVC maze with a plexiglass lid, divided into four equivalent exploration arms (45×10 cm), all interconnected by a small platform (10×10 cm). The apparatus was placed 66 crn above the floor. Two arms were opened and the other two closed with a wall (height: 30 cm).
After administration, the mouse was placed on the platform opposite the closed arm. The number of entries and the time spent in each open arm were recorded over 8 minutes.
The treatment was administered 1 hour before the test. The compounds were given orally at different doses. N=10; *** p<0.005 and **** p<0.001 (versus control; Dunnett test).

Assay [2] deals with mice. The assay is described as follows: Light/dark test. The format is in vivo, Balb/c or Swiss mice. The conditions noted are these: mice, 0.3, 3 and 30 mg/kg orally 1 hour before the test, versus controls (p<0.01). From the text:
This light/dark test is based on the natural tendency of rodents to prefer a dark environment and thereby evaluates the emotional responses of the animals in a situation of bright light. This procedure is suitable for assessing the state of anxiety elicited by anxiety stimuli (Lister's group, 1990). Mice placed in the apparatus, while showing a preference for the dark zone, nonetheless explore the light zone.
Ten to eleven-week old Balb/c or Swiss mice were used. Mice were randomly divided into a control group (treated with the vehicle) and other groups treated with the test compounds.
The test apparatus consisted of two PVC compartments (20×20×14 cm). with a plexiglass lid. One of the compartments was dark. A 100W light bulb was placed 15 cm above the other compartment, emitting the only light in the room (approximately 4400 lux). An opaque plastic tunnel separated the light and dark compartments.
The animal was placed in the light compartment with its head pointed towards the tunnel. The time spent in the light compartment and the number of entries into the light compartment were recorded for 5 minutes after the first entry into the dark zone. The test compound or the control treatment were administered orally 1 hour before the test.
N=10; ** p<0.01; **** p<0.001 (Dunnett test versus control).

Assay [3] has as its system mice. The assay is described as follows: Swim test. The format is in vivo, Wistar rats or Swiss mice. The conditions noted are these: 3 and 30 mg/kg, 20 minutes before the test, versus control group and 0.3 mg/kg group. As for the experimental part:
This test is based on the induction of alternative behavior in rodents subjected to an acute stress. In this model, the rat or mouse placed in a water-filled cylinder adopts a particular state of immobility. Onset of said immobility is delayed by antidepressants administered acutely or in repeated doses.
Wistar rats or Swiss mice were used. Animals were isolated for one week with a reverse light/dark cycle, then placed in the water-filled cylinder for 6 minutes. The total immobility time was recorded during the last 4 minutes. The treatment was administered 20 minutes before the test. Four groups were used to test three different doses: one control group treated with the vehicle, and one group for the three doses.
N=10; *** p<0.005 (Dunnett test).

A further assay has as its system PDE4. The assay is described as follows: Selectivity: inhibition of PDE4, radioenzymatic phosphodiesterase assay. The format is biochemical, bovine. To be noted: 10 μM test compound; vascular smooth muscle. How it is done:
as §1, §4, §2, §3

Structures are written as SMILES.

Usually inhibition stands for the relative decrease from the control value, in per cent. For the compound `COc1cc2c(cc1OC)N(C)C(=O)CN=C2c1cccc(C(N)=O)c1` [Compound 5a, 3-(7,8-dimethoxy-1-methyl-2-oxo-2,3-dihydro-1H-1,4-benzodiazepin-5-yl)-benzamide], in the assay on PDE1, the “PDE1 percentage inhibition at 10 μM” value turned out to be 13.2%. The inhibition at 10 µM at PDE5 is 17.6%. In addition, in the assay on mice [1], the “percentage of time spent in the open arms” value is reported as “spent more time in the open arms”. Also, the “time spent in the light compartment” value in the assay with mice [2] was “significantly more time in the light compartment”. Besides, in the assay on mice [3], the total immobility time result is “shorter immobility time”. Moreover, the “PDE4 percentage inhibition at 10 μM” value with PDE4 is given as 16.2%.
